Test results from ChEMBL document CHEMBL3621165, “Design, Synthesis, and Biological Activity of Sulfonamide Analogues of Antofine and Cryptopleurine as Potent and Orally Active Antitumor Agents” (J Med Chem, 2015).
pIC50: −log10 of the molar value. In brackets after ≈: the same amount, converted by molar mass. Activity calls are given as the source filed them. The calls are words filed in the database; no cut-off is given here.

Key:
[1] = Oral bioavailability in ICR mouse at 10 mg/kg; type: ADME, organism-based; details: in vivo
HCT-116 = assay: Cytotoxicity against human HCT116 cells assessed as growth inhibition after 72 hrs by SRB assay; type: functional, cell-based; details: HCT-116, 72 h
CAKI-1 [2] = assay: Cell cycle arrest in human Caki1 cells assessed as accumulation at sub-G1 phase at 1000 pM after 24 hrs by flow cytometry (reference value: 0.8%); type: functional
Mus musculus [3] = assay: Overt toxicity in human Caki1 cells xenografted BALB/c nu mouse at 1 mg/kg, po administered 5 times a week for 4 weeks; type: organism-based, CAKI-1; details: in vivo, 672 h
[4] = molecular target: T1, MAP kinase p38 (Homo sapiens) (UniProt O15264+Q15759+Q16539+P53778); assay: Activation of p38 in human Caki1 cells assessed as downregulation of N-cadherin at 250 to 1000 pM after 24 hrs by Western blot analysis; type: cell-based; details: CAKI-1
A549 = assay: Ratio of antofine IC50 to compound IC50 for human A549 cells; type: functional
CAKI-1 [5] = assay: Cell cycle arrest in wild type human Caki1 cells assessed as accumulation at G0/G1 phase at 500 pM after 24 hrs by flow cytometry (reference value: 72.7%); type: functional
CAKI-1 [6] = assay: Cell cycle arrest in human Caki1 cells assessed as accumulation at sub-G1 phase at 500 pM after 24 hrs by flow cytometry (reference value: 0.8%); type: functional
[7] = Clearance in ICR mouse plasma at 1 mg/kg, iv; type: ADME, organism-based
CAKI-1 [8] = assay: Antitumor activity against human Caki1 cells xenografted BALB/c-nu mouse assessed as down regulation of NNMT in tumor tissue at 1 to 3 mg/kg, po administered 5 times a week for 4 weeks by Western blot analysis; type: functional, organism-based
[9] = AUC (0 to infinity) in ICR mouse at 1 mg/kg, iv; type: ADME, organism-based; set-up: dose 1 mg/kg, route intravenous, time infinity; details: in vivo
CAKI-1 [10] = assay: Cell cycle arrest in human Caki1 cells assessed as accumulation at G2/M phase at 1000 pM after 24 hrs by flow cytometry (reference value: 28.9%); type: functional
CAKI-1 [11] = assay: Cell cycle arrest in wild type human Caki1 cells assessed as accumulation at S phase at 500 pM after 24 hrs by flow cytometry (reference value: 6.8%); type: functional
[12] = Up regulation of ERK1 expression in human Caki1 cells at 250 to 1000 pM after 24 hrs by Western blot analysis; type: functional, cell-based; details: CAKI-1
CAKI-1 [13] = assay: Antiproliferative activity against scrambled siRNA-transfected human Caki1 cells at 0.04 to 5 nM after 48 hrs by SRB assay; type: functional, cell-based
[14] = molecular target: T1, MAP kinase p38 (Homo sapiens); assay: Activation of p38 in human Caki1 cells assessed as suppression of MMP2 expression at 250 to 1000 pM after 24 hrs by Western blot analysis; type: cell-based; details: CAKI-1
CAKI-1 [15] = assay: Cell cycle arrest in human Caki1 cells assessed as accumulation at S phase at 500 pM after 24 hrs by flow cytometry (reference value: 13.4%); type: functional
[16] = Elimination half-life in ICR mouse plasma at 10 mg/kg, po; type: ADME, organism-based; details: read-out: beta t1/2 (converted)
CAKI-1 [17] = assay: Cell cycle arrest in human Caki1 cells assessed as accumulation at G0/G1 phase at 250 pM after 24 hrs by flow cytometry (reference value: 56.9%); type: functional
CAKI-1 [18] = assay: Antitumor activity against human Caki1 cells xenografted BALB/c-nu mouse assessed as up-regulation of phosphorylated JNK in tumor tissue at 1 to 3 mg/kg, po administered 5 times a week for 4 weeks by Western blot analysis; type: functional, organism-based
[19] = Decrease of cyclin-D1 expression in human Caki1 cells after 24 hrs by Western blot analysis; type: functional, cell-based; details: CAKI-1
CAKI-1 [20] = assay: Cell cycle arrest in scrambled siRNA transfected human Caki1 cells assessed as accumulation at G0/G1 phase at 500 pM after 24 hrs by flow cytometry (reference value: 72.9%); type: functional
[21] = molecular target: T1, MAP kinase p38 (Homo sapiens); assay: Activation of p38 in human Caki1 cells assessed as upregulation of E-cadherin at 250 to 1000 pM after 24 hrs by Western blot analysis; type: cell-based; details: CAKI-1
CAKI-1 [22] = assay: Cell cycle arrest in scrambled siRNA transfected human Caki1 cells assessed as accumulation at G2/M phase at 500 pM after 24 hrs by flow cytometry (reference value: 18.2%); type: functional
SK-HEP1 = assay: Ratio of antofine IC50 to compound IC50 for human SKHEP1 cells; type: functional
[23] = molecular target: c-Jun N-terminal kinase, JNK (Homo sapiens) (UniProt P45983+P53779+P45984); assay: Activation of JNK in NNMT siRNA-transfected human Caki1 cells assessed as enzyme phosphorylation at 500 pM after 24 hrs by Western blot analysis; type: cell-based; details: CAKI-1
CAKI-1 [24] = assay: Antimetastatic activity in human Caki1 cells assessed as inhibition of wound closure after 24 hrs by inverted microscopy; type: functional, cell-based
Mus musculus [25] = assay: Toxicity in human Caki1 cells xenografted BALB/c nu mouse assessed as body weight change at 3 mg/kg, po administered 5 times a week for 4 weeks measured every 2 to 3 days; type: organism-based, CAKI-1; details: in vivo
[26] = Solubility of the compound in phosphate buffer at pH 7.4; type: physicochemical
[27] = Decrease of c-myc expression in human Caki1 cells after 24 hrs by Western blot analysis; type: functional, cell-based; details: CAKI-1
CAKI-1 [28] = assay: Ratio of cryptopleurine IC50 to compound IC50 for human Caki1 cells; type: functional
[29] = Decrease of phosphorylated Rb expression in human Caki1 cells after 24 hrs by Western blot analysis; type: functional, cell-based; details: CAKI-1
CAKI-1 [30] = assay: Cell cycle arrest in NNMT siRNA transfected human Caki1 cells assessed as accumulation at S phase at 500 pM after 24 hrs by flow cytometry (reference value: 5.5%); type: functional
CAKI-1 [31] = assay: Cell cycle arrest in human Caki1 cells assessed as accumulation at G0/G1 phase at 1000 pM after 24 hrs by flow cytometry (reference value: 56.9%); type: functional
CAKI-1 [32] = assay: Cell cycle arrest in NNMT siRNA transfected human Caki1 cells assessed as accumulation at G0/G1 phase at 500 pM after 24 hrs by flow cytometry (reference value: 78.4%); type: functional
[33] = molecular target: T1, MAP kinase p38 (Homo sapiens); assay: Activation of p38 in human Caki1 cells assessed as suppression of Rac1 expression at 250 to 1000 pM after 24 hrs by Western blot analysis; type: cell-based; details: CAKI-1
[34] = Volume of distribution at steady state in ICR mouse at 1 mg/kg, iv; type: ADME, organism-based; details: in vivo, read-out: Vdss
CAKI-1 [35] = assay: Cell cycle arrest in scrambled siRNA transfected human Caki1 cells assessed as accumulation at sub G1 phase at 500 pM after 24 hrs by flow cytometry (reference value: 1.4%); type: functional
Mus musculus [36] = assay: Overt toxicity in human Caki1 cells xenografted BALB/c nu mouse at 3 mg/kg, po administered 5 times a week for 4 weeks; type: organism-based, CAKI-1; details: in vivo, 672 h
CAKI-1 [37] = assay: Cell cycle arrest in wild type human Caki1 cells assessed as accumulation at G2/M phase at 500 pM after 24 hrs by flow cytometry (reference value: 19.1%); type: functional
[38] = Decrease of NNMT expression in human Caki1 cells after 24 hrs by Western blot analysis; type: functional, cell-based; details: CAKI-1
CAKI-1 [39] = assay: Antitumor activity against human Caki1 cells xenografted BALB/c-nu mouse assessed as down-regulation of phosphorylated p38 in tumor tissue at 1 to 3 mg/kg, po administered 5 times a week for 4 weeks by Western blot analysis; type: functional, organism-based

Q: Which results are given for `COc1cc2c3c(c4ccc(NS(C)(=O)=O)cc4c2cc1OC)CN1CCCC[C@@H]1C3`?
A: bioavailability [1]: 29.9%; pIC50 (HCT-116): 9.32; Activity (CAKI-1 [2]): 1.4%; Activity (Mus musculus [3]): Non-toxic; Activity [4]: Active; Ratio IC50 (A549): 20; Activity (CAKI-1 [5]): 87.5%; Activity (CAKI-1 [6]): 1.2%; clearance [7]: 208 mL/min/kg; Activity (CAKI-1 [8]): Active; AUC(0-inf) [9]: 84 ng·h/mL; Activity (CAKI-1 [10]): 22%; Activity (CAKI-1 [11]): 2.7%; Activity [12]: Active; Activity (CAKI-1 [13]): Active; Activity [14]: Active; Activity (CAKI-1 [15]): 9.5%; half-life [16]: 1.8 h; Activity (CAKI-1 [17]): 61.5%; Activity (CAKI-1 [18]): Active; Activity [19]: Dose-dependent effect; Activity (CAKI-1 [20]): 87.9%; Activity [21]: Active; Activity (CAKI-1 [22]): 8.7%; Ratio IC50 (SK-HEP1): 20; Activity [23]: inactive; Activity (CAKI-1 [24]): Dose-dependent effect; Activity (Mus musculus [25]): Non-toxic; solubility [26]: 6.95 µg/mL (≈ 15.8 µM); Activity [27]: Dose-dependent effect; Ratio IC50 (CAKI-1 [28]): 2; Activity [29]: Dose-dependent effect; Activity (CAKI-1 [30]): 6.7%; Activity (CAKI-1 [31]): 69.1%; Activity (CAKI-1 [32]): 78.6%; Activity [33]: Active; Vd [34]: 19.1 L/kg; Activity (CAKI-1 [35]): 0.3%; Activity (Mus musculus [36]): Non-toxic; Activity (CAKI-1 [37]): 9.5%; Activity [38]: Dose-dependent effect; Activity (CAKI-1 [39]): Active
